Source: article PMC6842095 (Neuropharmacology, 2019)
Values joined by “and” are separate entries in the source; they are usually repeats but may differ in a detail not shown here. Identical values can stand only once. Like-named read-outs stand apart in the source and are kept apart here.

Legend:
[1] = target: T1, α4 GREFP β2 AChR (Homo sapiens, UniProt P17787+P43681, I229P/K186G/K222F/T220E/Y218R); type: binding
[2] = target: T2, α3 GFEP β4 AChR (Homo sapiens, UniProt P30926+P32297, I227P/K184G/K220F/N222E)
T2 sequence (P32297 32-505 K184G/K220F/N222E/I227P): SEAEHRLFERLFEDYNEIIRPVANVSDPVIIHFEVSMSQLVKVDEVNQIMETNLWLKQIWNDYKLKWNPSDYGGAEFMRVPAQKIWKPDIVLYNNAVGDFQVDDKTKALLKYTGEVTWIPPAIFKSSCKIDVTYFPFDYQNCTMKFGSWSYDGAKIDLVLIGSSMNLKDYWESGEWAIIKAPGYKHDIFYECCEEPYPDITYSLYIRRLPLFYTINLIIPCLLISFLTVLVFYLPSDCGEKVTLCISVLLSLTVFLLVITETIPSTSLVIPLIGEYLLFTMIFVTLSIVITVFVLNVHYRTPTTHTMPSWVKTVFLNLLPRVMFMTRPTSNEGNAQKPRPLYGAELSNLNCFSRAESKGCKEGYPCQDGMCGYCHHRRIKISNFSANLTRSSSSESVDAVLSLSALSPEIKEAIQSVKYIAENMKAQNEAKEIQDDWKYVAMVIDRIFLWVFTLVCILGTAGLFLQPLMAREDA
T2 sequence (P30926 22-498, stated change not applied): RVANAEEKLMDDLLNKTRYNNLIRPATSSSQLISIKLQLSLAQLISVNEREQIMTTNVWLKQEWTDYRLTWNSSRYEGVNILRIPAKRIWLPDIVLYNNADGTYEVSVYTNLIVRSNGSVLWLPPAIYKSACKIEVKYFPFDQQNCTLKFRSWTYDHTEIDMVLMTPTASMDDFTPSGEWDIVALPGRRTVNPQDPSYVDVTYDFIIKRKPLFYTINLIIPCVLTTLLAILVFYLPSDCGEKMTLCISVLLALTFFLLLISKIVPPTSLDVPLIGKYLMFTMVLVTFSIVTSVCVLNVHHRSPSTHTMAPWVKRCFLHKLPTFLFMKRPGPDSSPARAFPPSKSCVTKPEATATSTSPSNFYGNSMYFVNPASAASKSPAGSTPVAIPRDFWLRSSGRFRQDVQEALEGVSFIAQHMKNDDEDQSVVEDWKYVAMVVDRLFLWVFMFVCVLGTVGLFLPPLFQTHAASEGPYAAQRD

[3] = target: T3, α4 GREFP β4 AChR (Homo sapiens, UniProt P30926+P43681, I229P/K186G/K222F/T220E/Y218R)
T3 sequence (P30926 22-498): as the sequence (P30926 22-498, stated change not applied) above
T3 sequence (P43681 29-627 K186G/Y218R/T220E/K222F/I229P): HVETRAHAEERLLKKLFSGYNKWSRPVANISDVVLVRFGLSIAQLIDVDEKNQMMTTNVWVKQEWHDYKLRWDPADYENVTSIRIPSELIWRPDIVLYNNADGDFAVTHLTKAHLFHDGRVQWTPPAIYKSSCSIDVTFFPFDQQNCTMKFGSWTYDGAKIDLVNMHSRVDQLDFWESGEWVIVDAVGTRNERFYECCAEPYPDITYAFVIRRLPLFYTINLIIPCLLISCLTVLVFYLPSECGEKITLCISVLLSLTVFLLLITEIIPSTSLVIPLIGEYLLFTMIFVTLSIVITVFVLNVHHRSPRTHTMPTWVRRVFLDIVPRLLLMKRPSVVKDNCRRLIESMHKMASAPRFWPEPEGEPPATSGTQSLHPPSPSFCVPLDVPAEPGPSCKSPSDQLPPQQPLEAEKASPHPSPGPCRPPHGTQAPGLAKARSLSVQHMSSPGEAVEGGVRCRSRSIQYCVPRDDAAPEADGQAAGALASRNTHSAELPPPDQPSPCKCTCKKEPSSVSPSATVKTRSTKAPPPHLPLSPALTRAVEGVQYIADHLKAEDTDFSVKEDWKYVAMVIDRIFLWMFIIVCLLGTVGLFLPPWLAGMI

[4] = target: T4, α2 GFEP β4 AChR (Homo sapiens, UniProt P30926+Q15822, D246E/I251P/K208G/K244F)
T4 sequence (P30926 22-498, stated change not applied): as the sequence (P30926 22-498, stated change not applied) above
T4 sequence (Q15822 27-529 K208G/K244F/D246E/I251P): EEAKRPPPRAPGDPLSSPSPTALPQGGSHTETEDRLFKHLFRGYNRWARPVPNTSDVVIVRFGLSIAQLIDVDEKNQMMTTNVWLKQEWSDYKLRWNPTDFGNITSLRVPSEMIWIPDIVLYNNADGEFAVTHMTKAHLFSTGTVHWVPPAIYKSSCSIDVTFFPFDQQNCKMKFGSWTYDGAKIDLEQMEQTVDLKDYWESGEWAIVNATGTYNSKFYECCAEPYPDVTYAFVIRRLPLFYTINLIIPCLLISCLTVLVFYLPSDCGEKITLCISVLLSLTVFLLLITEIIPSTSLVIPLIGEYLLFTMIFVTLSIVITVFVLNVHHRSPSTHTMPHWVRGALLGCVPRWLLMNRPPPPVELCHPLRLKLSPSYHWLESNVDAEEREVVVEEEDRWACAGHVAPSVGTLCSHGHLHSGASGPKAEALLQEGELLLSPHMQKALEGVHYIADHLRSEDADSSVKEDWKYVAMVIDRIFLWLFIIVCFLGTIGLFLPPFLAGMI

[5] = target: T4, α2 GFEP β4 AChR; assay: cell-based
[6] = target: T4, α2 GFEP β4 AChR; assay: Time course of ^125I-α-BTX dissociation; type: binding
[7] = target: T1, α4 GREFP β2 AChR; assay: Time course of ^125I-α-BTX dissociation; type: binding
[8] = target: muscle AChR (α1, β, ε, δ) (Homo sapiens, UniProt P02708+Q04844+Q07001); type: binding
muscle AChR (α1, β, ε, δ), sequence (P02708 21-457 limits assumed): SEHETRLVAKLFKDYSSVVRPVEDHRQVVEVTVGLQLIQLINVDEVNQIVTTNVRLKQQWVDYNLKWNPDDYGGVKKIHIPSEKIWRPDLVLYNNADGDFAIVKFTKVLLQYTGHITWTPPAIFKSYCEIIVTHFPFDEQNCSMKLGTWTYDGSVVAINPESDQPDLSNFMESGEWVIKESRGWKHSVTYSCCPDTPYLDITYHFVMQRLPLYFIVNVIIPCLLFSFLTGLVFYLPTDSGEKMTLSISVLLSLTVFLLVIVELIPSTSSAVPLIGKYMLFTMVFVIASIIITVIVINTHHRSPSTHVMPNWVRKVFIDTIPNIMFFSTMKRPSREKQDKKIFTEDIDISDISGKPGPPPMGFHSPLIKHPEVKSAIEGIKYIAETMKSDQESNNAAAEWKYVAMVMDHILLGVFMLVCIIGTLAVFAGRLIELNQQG
muscle AChR (α1, β, ε, δ), sequence (Q04844 21-493 limits assumed): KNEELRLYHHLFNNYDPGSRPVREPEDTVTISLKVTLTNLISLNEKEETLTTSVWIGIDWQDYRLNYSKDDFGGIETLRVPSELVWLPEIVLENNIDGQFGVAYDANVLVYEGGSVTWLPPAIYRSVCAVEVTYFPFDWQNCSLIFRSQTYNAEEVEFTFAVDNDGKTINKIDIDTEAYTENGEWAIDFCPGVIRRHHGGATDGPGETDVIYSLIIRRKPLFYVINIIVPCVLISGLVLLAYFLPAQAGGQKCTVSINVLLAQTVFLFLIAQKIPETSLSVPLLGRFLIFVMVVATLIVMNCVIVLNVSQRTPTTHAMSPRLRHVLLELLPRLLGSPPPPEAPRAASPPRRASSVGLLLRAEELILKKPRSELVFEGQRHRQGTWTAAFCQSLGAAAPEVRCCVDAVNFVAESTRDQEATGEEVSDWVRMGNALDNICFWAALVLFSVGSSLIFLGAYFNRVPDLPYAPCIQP
muscle AChR (α1, β, ε, δ), sequence (Q07001 22-517 limits assumed): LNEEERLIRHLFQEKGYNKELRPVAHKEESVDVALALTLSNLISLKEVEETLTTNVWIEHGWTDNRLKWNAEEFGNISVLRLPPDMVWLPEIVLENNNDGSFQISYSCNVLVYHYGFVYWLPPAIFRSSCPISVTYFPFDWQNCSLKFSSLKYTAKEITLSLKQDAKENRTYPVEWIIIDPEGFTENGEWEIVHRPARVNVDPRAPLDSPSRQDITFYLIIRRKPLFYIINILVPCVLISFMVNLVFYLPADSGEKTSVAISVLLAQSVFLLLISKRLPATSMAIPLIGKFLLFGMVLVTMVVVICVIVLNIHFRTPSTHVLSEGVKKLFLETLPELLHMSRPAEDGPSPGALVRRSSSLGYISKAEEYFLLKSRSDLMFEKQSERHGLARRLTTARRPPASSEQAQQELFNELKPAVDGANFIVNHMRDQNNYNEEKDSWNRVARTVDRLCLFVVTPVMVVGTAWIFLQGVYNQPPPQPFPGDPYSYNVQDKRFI

[9] = target: T2, α3 GFEP β4 AChR; assay: Time course of ^125I-α-BTX dissociation; type: binding
[10] = target: α7 AChR (Homo sapiens, UniProt P36544); type: binding
α7 AChR, sequence (P36544 23-502 limits assumed): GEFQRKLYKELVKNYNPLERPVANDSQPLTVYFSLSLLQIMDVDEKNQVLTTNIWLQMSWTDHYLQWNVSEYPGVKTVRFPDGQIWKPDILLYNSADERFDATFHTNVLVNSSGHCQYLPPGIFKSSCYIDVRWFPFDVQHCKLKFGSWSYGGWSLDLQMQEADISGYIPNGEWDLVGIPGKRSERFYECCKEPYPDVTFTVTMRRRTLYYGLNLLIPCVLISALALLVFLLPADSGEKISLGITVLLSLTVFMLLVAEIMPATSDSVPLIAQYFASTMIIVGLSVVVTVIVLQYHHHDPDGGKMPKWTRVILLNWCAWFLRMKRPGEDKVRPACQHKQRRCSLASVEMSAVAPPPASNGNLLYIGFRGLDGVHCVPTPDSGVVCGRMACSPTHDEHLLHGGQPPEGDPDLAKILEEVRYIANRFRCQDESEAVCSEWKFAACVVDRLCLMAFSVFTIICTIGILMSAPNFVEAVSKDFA

[11] = target: wild type α4β2 AChR (Homo sapiens, UniProt P17787+P43681); type: binding
[12] = target: T3, α4 GREFP β4 AChR; assay: Time course of ^125I-α-BTX dissociation; type: binding
[13] = target: α2 GFEP β2 AChR (Homo sapiens, UniProt P17787+Q15822, D246E/I251P/K208G/K244F); type: binding
α2 GFEP β2 AChR, sequence (P17787 26-502 limits assumed, stated change not applied): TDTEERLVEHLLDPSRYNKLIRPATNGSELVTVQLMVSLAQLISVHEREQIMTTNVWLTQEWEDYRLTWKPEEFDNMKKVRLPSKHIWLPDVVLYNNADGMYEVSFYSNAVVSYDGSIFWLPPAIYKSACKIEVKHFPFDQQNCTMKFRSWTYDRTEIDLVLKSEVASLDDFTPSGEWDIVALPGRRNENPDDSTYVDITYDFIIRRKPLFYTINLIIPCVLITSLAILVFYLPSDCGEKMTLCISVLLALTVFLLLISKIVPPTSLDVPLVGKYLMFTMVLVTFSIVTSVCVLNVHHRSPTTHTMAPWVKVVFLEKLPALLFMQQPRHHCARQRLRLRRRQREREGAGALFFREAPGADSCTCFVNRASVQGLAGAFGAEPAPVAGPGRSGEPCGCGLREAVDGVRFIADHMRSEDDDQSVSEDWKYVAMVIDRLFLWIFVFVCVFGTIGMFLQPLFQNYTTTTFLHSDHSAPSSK
α2 GFEP β2 AChR, sequence (Q15822 27-529 K208G/K244F/D246E/I251P limits assumed, stated change not applied): as the sequence (Q15822 27-529 K208G/K244F/D246E/I251P) above

T1 sequence (P43681 29-627 K186G/Y218R/T220E/K222F/I229P): as the sequence (P43681 29-627 K186G/Y218R/T220E/K222F/I229P) above
T1 sequence (P17787 26-502, stated change not applied): as the sequence (P17787 26-502 limits assumed, stated change not applied) above

Molecule: Clc1ccc(C2CC3CCC2N3)cn1 (racemic) [Epibatidine, (±) epibatidine]
- nH (Hill coefficient) ([1]; α4 GREFP + β2, ± S.E.): 1.3 ± 0.1

Molecule: CC(=O)OCC[N+](C)(C)C [ACh, Acetylcholine]
- nH (Hill coefficient) [1]: 0.81 ± 0.07

Molecule: CN1CCC[C@H]1c1cccnc1 [Nicotine, (−)nicotine]
- nH (Hill coefficient) [2]: 0.75 ± 0.1
- nH (Hill coefficient) [3]: 0.80 ± 0.1
- nH (Hill coefficient) [4]: 0.96 ± 0.1
- Kd [5]: 210 nM
- nH (Hill coefficient) [1]: 1.4 ± 0.1

Molecule: α-bungarotoxin [α-BTX]
- Half-life [6]: 9.6 h
- kdissoc [6]: 2.0 ± 0.3 × 10^−5 s^−1
- Half-life [7]: 12.6 h
- dissociation constant from ratio of dissociation to association rate constants [7]: 0.3 nM
- kdissoc [7]: 1.5 × 10^−5 s^−1 and 1.5 ± 0.2 × 10^−5 s^−1
- Half-life [8]: 5.4 h
- kdissoc [8]: 3.5 ± 0.4 × 10^−5 s^−1
- Half-life [9]: 77 h
- kdissoc [9]: 2.5 ± 0.9 × 10^−6 s^−1
- Half-life [10]: 133 h
- kdissoc [10]: 1.5 ± 0.3 × 10^−6 s^−1
- affinity for the toxin (ratio of total to nonspecific binding close to one) [11]: negligible affinity
- Half-life [12]: 19 h
- kdissoc [12]: 1.0 ± 0.1 × 10^−5 s^−1
- Half-life [13]: 6.0 h
- kdissoc [13]: 3.2 ± 0.3 × 10^−5 s^−1
